Test results from publication PMC12612990, “PNA5, a glycosylated angiotensin-(1−7) mas receptor agonist for vascular dementia: A two species toxicology and toxicokinetic study” (Toxicology Reports, 2025).
Peptide text beside a SMILES is read from it. * marks the point of attachment. βGlc = OC[C@H]1O[C@@H](*)[C@H](O)[C@@H](O)[C@@H]1O

Assays:
Sprague Dawley rats = experiment: 28-day repeat-dose subcutaneous toxicology study (main and recovery) in Sprague Dawley rats; format: in vivo, rat
Description: Rats used in studies were inspected upon receipt for good health and were acclimated for 7 days at a minimum. Male and female rats were randomly selected for one of the four treatment groups upon receipt. Group 1 rats received vehicle control (0.9 % sodium chloride (saline) for injection, USP) subcutaneously for 28 days. Rats in groups 2–4 received PNA5 at 1, 5, or 40 mg/kg/day subcutaneously for 28 days (Table 1). Rats for all studies were dosed once daily for 28 consecutive days via subcutaneous bolus injection. The first day of dosing was based on day 1 body weights. Toxicokinetic study animals were dosed in the same fashion as for the main and recovery study animals.
Rats are observed at least twice daily (morning and afternoon) beginning upon arrival through termination/release for mortality. For the toxicology main study, 10 rats per sex were randomly assigned to groups 1–4. 5 rats per sex were assigned to groups 1 (control) and group 4 (PNA5 at 40 mg/kg/day) for the toxicology recovery study. The number of animals used for the toxicokinetic groups was calculated to meet a sufficient number of animals to provide samples for toxicokinetic analysis while minimizing the number of blood collections per animal.
After 28 treatments, animals that were a part of the main and toxicokinetic study were scheduled for euthanasia on day 29, during which the necropsy measures were collected for the main study animals. Rats that were a part of the recovery animal study started the recovery period on day 29 and were scheduled for euthanasia on day 57, during which the same necropsy measures were collected. Animals were euthanized for humane reasons or at study termination via carbon dioxide inhalation followed by exsanguination via the vena cava for necropsy. Main Study and Recovery animals were fasted overnight prior to the scheduled necropsy. Following the final blood collection, animals in the toxicokinetic studies were euthanized by inhalation of carbon dioxide but were not exsanguinated for necropsy.
The following parameters and end points were evaluated in this study: mortality, clinical observations, body weights, body weight gains, food consumption, ophthalmology, clinical pathology parameters (hematology, coagulation, clinical chemistry, and urinalysis), toxicokinetic parameters, organ weights, and macroscopic and microscopic examinations.
Animals were observed daily. On days with dosing, observations were made 10–30 min postdosing. During the dosing, observations included but were not limited to the following: Changes in skin on the whole animal and at the injection site, fur, eyes, mucous membrane, and respiratory functions.
A detailed clinical observation was performed 1 week prior to randomization, on the date of randomization, and then weekly during the study period, with the last observation on the day of the scheduled necropsy.
The injection site was shaved and marked for identification and evaluation during the study. The injection site was collected at necropsy.
Rats were weighed within 4 days of receipt, on the day of randomization, daily during the study, and on the day of the scheduled necropsies. Dogs were weighed one week prior to randomization (± 2 days), on the day of randomization, on Day 1 (prior to dosing), weekly (± 2 days) during the study period, on the day prior to the scheduled necropsies, and on the day of the scheduled necropsy.
Rats' food consumption was measured quantitatively once weekly beginning on Day 1 and persisting throughout the study. Dogs' food consumption was measured daily beginning on Day 1 and persisting throughout the study.
Ophthalmic examinations were conducted by a board-certified veterinary ophthalmologist using an indirect ophthalmoscope and slit lamp biomicroscope. Prior to examination, animals will be treated with a mydriatic agent. […]

male Sprague Dawley rats [1] = experiment: Pulmonary safety parameters after a single subcutaneous dose in male Sprague Dawley rats; format: in vivo, rat; details: single s.c. dose 1, 5 or 40 mg/kg, n = 8 per group
Description: Respiratory rate, tidal volume, and calculated minute volume were measured in male Sprague Dawley rats to measure pulmonary safety parameters after a single subcutaneous dose of 0, 1, 5, or 40 mg/kg PNA5 (n = 8 males per group).

male Sprague Dawley rats [2] = experiment: Neurobehavioral evaluations after a single subcutaneous dose in male Sprague Dawley rats; format: in vivo, rat; details: single s.c. dose 1, 5 or 40 mg/kg, n = 8 per group
Description: To evaluate the effects of PNA5 when administered subcutaneously on the central nervous system’s autonomic, neuromuscular, sensorimotor, and behavioral domains, neurobehavioral evaluations were performed in male Sprague Dawley rats treated with PNA5 at 0, 1, 5, or 40 mg/kg (n = 8 males per group). The neurobehavioral evaluations consisted of assessments of the central nervous system for activity, excitability, autonomic function, neuromuscular function, sensorimotor responses, and physiological function.

male Beagle dogs = experiment: Cardiovascular safety evaluation after a single subcutaneous dose in male Beagle dogs; format: in vivo, dog; details: single s.c. injection 1, 5 or 20 mg/kg
Description: PNA5 -related cardiovascular effects were evaluated in male Beagle dogs at dose levels of 1, 5, or 20 mg/kg. To evaluate the effects of PNA5 when administered subcutaneously on the cardiovascular system the following parameters were measured including clinical observations, heart rate, arterial blood pressure (systolic, diastolic, and mean), pulse pressure, body temperature, and ECG waveforms (from which ECG waveform morphologies and ECG intervals PR, QRS, QT, and heart rate corrected QT [QTc] were derived).

[3] = Toxicokinetics of PNA5 in Sprague Dawley rat plasma; details: for AUC(0-t) / Cmax / half-life / Tmax: both, Sprague Dawley, rat, sc; for AUC(0-t) / Cmax / half-life / Tmax / Kel: plasma; for AUC(0-t): AUC0–2, rats, n = 6, linear trapezoidal; for AUC(0-t) / Cmax / half-life / Kel: mean ± SD; for Cmax: Sprague Dawley rats, n = 6, UHPLC-MS/MS, noncompartmental; for half-life: n = 6, Ln(2)/Kel; for AUC0–2hr averaged accumulation ratio: day 1 to day 28, sexes combined; for F:M AUC0–2hr ratio: printed as on day 1; for fold increase in AUC0–2hr for a 40-fold increase in dose / fold increase in Cmax for a 40-fold increase in dose: 1 to 40 mg/kg/day; for Kel: n = 6, exponential regression
Description: Toxicokinetic (TK) of PNA5 was obtained from plasma following a single and repeated subcutaneous injection administration of PNA5 once daily for 28 days. Blood samples were collected on days 1 and 28 at the following time points: pre-dose and at approximately 5, 15, 30, 60, and 120 min post-dose (equivalent to 0.083, 0.25, 0.5, 1, and 2 h).
For the rat study, a total of 6 rats for each sex were assigned randomly to treatment groups 2–4 (those treated with PNA5). Three rats per sex were assigned to group 1 (vehicle control). Rats were sampled in satellite groups; rats' blood was taken at alternating time points, resulting in a total n = 3 per time point for six animals. For the dog study, three animals per sex were assigned to group 2 and group 3, and five animals per sex were assigned to group 1 and group 4. Blood was collected from canines via venipuncture.
Blood was collected in heparinized tubes containing a protease inhibitor cocktail consisting of 4 mM 0-phenanthroline, 1.2 mM pepstatin A, and 0.5 M EDTA. Blood samples were centrifuged for 15 min at 2500 x g at room temperature. Plasma was transferred into pre-cooled, pre-labeled collection tubes, frozen immediately in liquid nitrogen/dry ice, and stored at −80 °C until analysis.
PNA5 levels were analyzed using ultra-high performance liquid chromatography (UHPLC) with tandem mass spectrometric (MS/MS) detection. Precision and accuracy, reproducibility, selectivity, carryover, recovery, matrix effects, dilution integrity, hemolysis, stock stability, and matrix stability were assessed prior to initiation of the validation. Samples (5 µL) were injected onto the column and separated using gradient elution. Target compounds were quantified by summing the height of previously identified fragment peaks in the LC-MS [3] spectra. The serum concentrations were estimated using a calibration curve, accounting for the dilution factors and the probe recoveries for each experiment. Standards were matrix-matched to samples and underwent the same sample preparation steps.
A noncompartmental analysis was used for parameter estimation. For PNA5 in plasma, the extravascular model was used for parameter estimation. For the rat study, all parameters were generated from PNA5 individual concentrations in plasma from days 1 and 28. Parameters were estimated using nominal dose levels and nominal sampling times relative to the dose administration. Plasma concentration values obtained at the pre-dose time point were used as the concentration at time 0 on days 1 and 28. For the dog study, all parameters were generated from PNA5 individual concentrations in plasma from days 1 and 28. Parameters were estimated using nominal dose levels and nominal sampling times relative to dose administration. Plasma concentration values obtained at the pre-dose time point were used as the concentration at time 0 on days 1 and 28. For Beagle dogs, concentration values reported as below the limit of quantitation (< 5 ng/mL) were assigned a value of 0.
The toxicokinetic parameters evaluated included the area under the curve of the plasma PNA5 concentration against time from time 0 (pre-dose) to 2 h (post-dose) (AUC0–2hr), the maximum plasma concentration (Cmax), time to maximum plasma concentration (Tmax), elimination rate (Kel), and the half-life. The area under the concentration vs. time curve was calculated using the linear trapezoidal method with linear interpolation for all profiles with at least three consecutive quantifiable concentrations. Kel was calculated from the slope using exponential regression of concentration versus time (Excel); exponential interpolations for all profiles include at least three concentrations plotted against time. Time 0 values and all concentrations listed as zero were excluded from Kel calculations. The half-life was calculated from Kel via the following equation: half-life Ln(2)/Kel.

[4] = rats, 1, 5, 40 mg/kg/day s.c. for 28 days
[5] = rats, main study, day 29 necropsy
[6] = rats, recovery study, 40 mg/kg/day vs control

SMILES: CC[C@H](C)[C@H](NC(=O)[C@H](Cc1ccc(O)cc1)NC(=O)[C@@H](NC(=O)[C@H](CCCNC(=N)N)NC(=O)[C@@H](N)CC(=O)O)C(C)C)C(=O)N[C@@H](Cc1c[nH]cn1)C(=O)N[C@@H](CO[C@@H]1O[C@H](CO)[C@@H](O)[C@H](O)[C@H]1O)C(N)=O [PNA5, Ang-1–6-Ser-O-Glu-NH2] (H-DRVYIHS(βGlc)-NH2)
- tolerability (mortality, adverse findings) (Sprague Dawley rats; Sprague-Dawley rats, main and recovery studies, s.c. bolus once daily 28 days, 1, 5, 40 mg/kg/day): well tolerated at all doses with no effects on mortality or adverse findings
- mixed cell infiltration at the subcutaneous dorsoscapular injection site (Sprague Dawley rats; rats, 40 mg/kg/day group females, main study, considered within the expected response to the injection procedure): increase in incidence and severity of mixed cell infiltration
- prostate/seminal vesicle weight normalized to body weight or brain weight vs control (Sprague Dawley rats; rats, 40 mg/kg/day group males, recovery study, considered incidental, absolute weights not different): significantly higher
- body weights and body weight gains (Sprague Dawley rats; [4]): unaffected
- food consumption (Sprague Dawley rats; [4]): unaffected
- clinical observations (Sprague Dawley rats; rats, 1, 5, 40 mg/kg/day subq for 28 days, main and recovery study): no test article-related clinical observations
- survival (Sprague Dawley rats; rats, 1, 5 and 40 mg/kg/day s.c. for 28 days): All animals survived until the scheduled euthanasia
- ophthalmic examinations (Sprague Dawley rats; rats, all test article-treated groups): No ophthalmic lesions indicative of toxicity were observed
- hematology, coagulation, clinical chemistry and urinalysis parameters (Sprague Dawley rats; rats, main study, all dose levels): unaffected
- macroscopic findings (Sprague Dawley rats; [5]): no test article-related macroscopic findings
- microscopic findings (Sprague Dawley rats; [5]): no test article-related microscopic findings
- organ weights (Sprague Dawley rats; [5]): no test article-related organ weight changes
- microscopic findings (Sprague Dawley rats; rats, recovery study): No test article-related microscopic findings were noted
- macroscopic findings (Sprague Dawley rats; [6]): no test article-related macroscopic findings
- organ weights (Sprague Dawley rats; [6]): no test article-related organ weight changes
- respiratory rate, tidal volume and calculated minute volume (male Sprague Dawley rats [1]): no effect
- neurobehavioral assessments of the central nervous system (activity, excitability, autonomic, neuromuscular, sensorimotor, physiological function) (male Sprague Dawley rats [2]): nor were there observed PNA5-related effects
- clinical observations, heart rate, arterial blood pressure, pulse pressure, body temperature and ECG waveforms (male Beagle dogs): no effect
- AUC(0-t) ([3]; 1 mg/kg/day, s.c. 1 mg/kg/day, day 1, sexes combined): 0.263 ± 0.0315 ng·h/mL
- AUC(0-t) ([3]; 1 mg/kg/day, s.c. 1 mg/kg/day, day 28, sexes combined): 0.464 ± 0.0741 ng·h/mL
- Cmax ([3]; 1 mg/kg/day, s.c. once daily 1 mg/kg/day, day 1, sexes combined): 0.591 ± 0.25 ng/mL
- Cmax ([3]; 1 mg/kg/day, s.c. once daily 1 mg/kg/day, day 28, sexes combined): 0.968 ± 0.28 ng/mL
- half-life ([3]; 1 mg/kg/day, rats, s.c. 1 mg/kg/day, day 1, sexes combined): 36 ± 6 min
- half-life ([3]; 1 mg/kg/day, rats, s.c. 1 mg/kg/day, day 28, sexes combined): 30.6 ± 9 min
- Tmax ([3]; 1 mg/kg/day, rats, s.c. 1 mg/kg/day, day 1, sexes combined, average (range lowest to highest)): 6.6 min
- Tmax ([3]; 1 mg/kg/day, rats, s.c. 1 mg/kg/day, day 28, sexes combined, average (range lowest to highest)): 10.2 min
- AUC(0-t) ([3]; 5 mg/kg/day, s.c. 5 mg/kg/day, day 1, sexes combined): 1.55 ± 0.789 ng·h/mL
- AUC(0-t) ([3]; 5 mg/kg/day, s.c. 5 mg/kg/day, day 28, sexes combined): 2.86 ± 1.72 ng·h/mL
- Cmax ([3]; 5 mg/kg/day, s.c. once daily 5 mg/kg/day, day 1, sexes combined): 3.37 ± 1.99 ng/mL
- Cmax ([3]; 5 mg/kg/day, s.c. once daily 5 mg/kg/day, day 28, sexes combined): 5.35 ± 2.77 ng/mL
- half-life ([3]; 5 mg/kg/day, rats, s.c. 5 mg/kg/day, day 1, sexes combined): 25.2 ± 7.8 min
- half-life ([3]; 5 mg/kg/day, rats, s.c. 5 mg/kg/day, day 28, sexes combined): 22.2 ± 7.8 min
- Tmax ([3]; 5 mg/kg/day, rats, s.c. 5 mg/kg/day, day 1, sexes combined, average): 4.98 min
- Tmax ([3]; 5 mg/kg/day, rats, s.c. 5 mg/kg/day, day 28, sexes combined, average (range lowest to highest)): 11.4 min
- AUC(0-t) ([3]; 40 mg/kg/day, s.c. 40 mg/kg/day, day 1, sexes combined): 16.1 ng·h/mL
- AUC(0-t) ([3]; 40 mg/kg/day, s.c. 40 mg/kg/day, day 28, sexes combined): 29.6 ng·h/mL
- Cmax ([3]; 40 mg/kg/day, s.c. once daily 40 mg/kg/day, day 1, sexes combined): 40.8 ng/mL
- Cmax ([3]; 40 mg/kg/day, s.c. once daily 40 mg/kg/day, day 28, sexes combined): 62.5 ng/mL
- half-life ([3]; 40 mg/kg/day, rats, s.c. 40 mg/kg/day, day 1, sexes combined): 19.8 ± 4.8 min
- half-life ([3]; 40 mg/kg/day, rats, s.c. 40 mg/kg/day, day 28, sexes combined): 23.4 ± 3.6 min
- Tmax ([3]; 40 mg/kg/day, rats, s.c. 40 mg/kg/day, day 1, sexes combined, average (range lowest to highest)): 8.4 min
- Tmax ([3]; 40 mg/kg/day, rats, s.c. 40 mg/kg/day, day 28, sexes combined, average (range lowest to highest)): 10.2 min
- AUC0–2hr averaged accumulation ratio ([3]; rats, 1 mg/kg/day): 1.76
- F:M AUC0–2hr ratio ([3]; rats, 5 mg/kg/day): 0.66–1.58
- AUC0–2hr averaged accumulation ratio ([3]; rats, 40 mg/kg/day): 1.84
- F:M AUC0–2hr ratio ([3]; rats, 40 mg/kg/day): 1.16–1.32
- fold increase in AUC0–2hr for a 40-fold increase in dose ([3]; rats, day 1, sexes combined): ~61.22 fold
- fold increase in Cmax for a 40-fold increase in dose ([3]; rats, day 1, sexes combined): ~69.09 fold
- fold increase in AUC0–2hr for a 40-fold increase in dose ([3]; rats, day 28, sexes combined): ~63.93 fold
- fold increase in Cmax for a 40-fold increase in dose ([3]; rats, day 28, sexes combined): ~64.56 fold
- F:M Cmax ratios ([3]; rats, day 28, range across doses): 1.24 – 1.37
- Kel ([3]; rats, s.c. 1 mg/kg/day, day 1, sexes combined): 1.18 ± 0.18, 6 hr–1
- Kel ([3]; rats, s.c. 5 mg/kg/day, day 1, sexes combined): 1.79 ± 0.67, 6 hr–1
- Kel ([3]; rats, s.c. 5 mg/kg/day, day 28, sexes combined): 2.08 ± 0.86, 6 hr–1
- Kel ([3]; rats, s.c. 40 mg/kg/day, day 1, sexes combined): 2.24 ± 0.83, 6 hr–1
- Kel ([3]; rats, s.c. 40 mg/kg/day, day 28, sexes combined): 1.82 ± 0.28, 6 hr–1
- time post-dose up to which PNA5 plasma concentrations were quantifiable ([3]; rats, s.c. 1, 5 or 40 mg/kg/day, day 1 and day 28, last sampling time 2 h): up to 2 h
